We go through eight molecules from PubChem BioAssay (NCI).

Each structure is given as a SMILES string.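 Briefly, cells in 96-well plates were exposed to five compound concentrations for 48 h, and endpoints were estimated by linear interpolation. Definition used: TGI = concentration required for complete inhibition of growth.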

Among the test systems are OVCAR-4 ovarian; SK-MEL-5 melanoma; MDA-MB-231 breast; LOX IMVI melanoma; CCRF-CEM leukemia; UACC-257 melanoma; DU-145 prostate; SN12C renal; SK-MEL-2 melanoma; HT29 colon; NCI-H522 lung; MCF7 breast; EKVX NSCLC; HL-60(TB) leukemia; COLO 205 colon; SNB-75 CNS; M14 melanoma; ACHN renal; RPMI-8226 leukemia; A498 renal.
Holding throughout (test): NCI anticancer screen, dose series, 48 h

Consider `CC(C)OC(=O)C1(C(C)C)CCc2ccc(C(=O)CCC(=O)O)cc21` (centres undefined), for which the TGI with OVCAR-4 ovarian, with SK-MEL-5 melanoma, with MDA-MB-231 breast, with LOX IMVI melanoma, with CCRF-CEM leukemia and in the experiment with UACC-257 melanoma was > 100 µM each time. For the same molecule, the TGI with DU-145 prostate, with SN12C renal, in the experiment with SK-MEL-2 melanoma, in the experiment with HT29 colon, in the experiment on NCI-H522 lung and in the experiment with MCF7 breast was > 100 µM in each case. For the same molecule, the TGI in the experiment on EKVX NSCLC, in the experiment on HL-60(TB) leukemia, in the experiment with COLO 205 colon, in the experiment on SNB-75 CNS, with M14 melanoma and in the experiment on ACHN renal was > 100 µM each time. The TGI in the experiment on RPMI-8226 leukemia was > 100 µM.
For the molecule `CCOC(=O)CC(=O)Nc1cccc2sc3ncccc3c(=O)c12`, the TGI with OVCAR-4 ovarian is > 100 µM; in the experiment on SK-MEL-5 melanoma it was 40.5 µM; with MDA-MB-231 breast, > 100 µM; with LOX IMVI melanoma, > 100 µM; in the experiment on CCRF-CEM leukemia, > 100 µM; with UACC-257 melanoma it was > 100 µM. Besides, the TGI with DU-145 prostate, in the experiment on SN12C renal, in the experiment with SK-MEL-2 melanoma, with HT29 colon, in the experiment with NCI-H522 lung and in the experiment on MCF7 breast was > 100 µM in each case. The TGI with EKVX NSCLC, in the experiment on COLO 205 colon, in the experiment on SNB-75 CNS, with M14 melanoma, in the experiment with ACHN renal and with RPMI-8226 leukemia was > 100 µM each time.
Consider `O=C(Cn1c(C(=O)/C=C/c2ccc(Cl)cc2)nc2ccccc21)c1ccc(Cl)cc1`, for which the TGI in the experiment on OVCAR-4 ovarian stood at 50.7 µM; with SK-MEL-5 melanoma it was 29.3 µM; in the experiment with MDA-MB-231 breast, 52 µM; with LOX IMVI melanoma, 36.5 µM; with CCRF-CEM leukemia, 8.45 µM; in the experiment with UACC-257 melanoma, 68.2 µM. Besides, the TGI in the experiment on DU-145 prostate stood at 56.1 µM; in the experiment with SN12C renal, 37.3 µM; with SK-MEL-2 melanoma, 39.5 µM; in the experiment with HT29 colon, 42.5 µM; in the experiment on MCF7 breast, 30.9 µM; with EKVX NSCLC, 64.5 µM. Also, the TGI was > 100 µM in the experiment on A498 renal; 29.1 µM with HL-60(TB) leukemia; 36.1 µM in the experiment on COLO 205 colon; 43.6 µM with M14 melanoma; 72.5 µM in the experiment on ACHN renal; 49.7 µM with RPMI-8226 leukemia.
As to `CC(=O)N1C(=O)c2cc3ccccc3cc21`, the TGI with SK-MEL-5 melanoma, in the experiment with MDA-MB-231 breast, with LOX IMVI melanoma, in the experiment on CCRF-CEM leukemia, in the experiment with DU-145 prostate and in the experiment with SN12C renal was > 100 µM throughout. Besides, the TGI with SK-MEL-2 melanoma is > 100 µM; in the experiment with MCF7 breast, > 100 µM; with EKVX NSCLC it was > 100 µM; in the experiment with A498 renal it was 89.4 µM; with HL-60(TB) leukemia it was > 100 µM; in the experiment on COLO 205 colon it was > 100 µM. In addition, the TGI in the experiment with SNB-75 CNS, in the experiment with M14 melanoma, with ACHN renal and in the experiment on RPMI-8226 leukemia was > 100 µM in each case.
On to `COc1ccc2nc3n(c2c1)C(c1c(F)cccc1F)SC3` (centres undefined), for which the TGI in the experiment with OVCAR-4 ovarian, in the experiment on SK-MEL-5 melanoma, with MDA-MB-231 breast, in the experiment on LOX IMVI melanoma, in the experiment with CCRF-CEM leukemia and in the experiment on UACC-257 melanoma was > 100 µM each time. For the same molecule, the TGI in the experiment with DU-145 prostate was > 100 µM; with SN12C renal, > 100 µM; in the experiment on SK-MEL-2 melanoma, 74.9 µM; with HT29 colon, > 100 µM; with MCF7 breast, > 100 µM; in the experiment on EKVX NSCLC, 55 µM. Moreover, the TGI in the experiment with A498 renal is > 100 µM; with HL-60(TB) leukemia, 78.7 µM; with COLO 205 colon it was > 100 µM; in the experiment on SNB-75 CNS it was > 100 µM; in the experiment on M14 melanoma, > 100 µM; with ACHN renal, > 100 µM. Further, the TGI with RPMI-8226 leukemia is > 100 µM.
In the case of `CNn1c(-c2ccc(C)cc2)n[nH]c1=O`, the TGI with OVCAR-4 ovarian, in the experiment on SK-MEL-5 melanoma, in the experiment on MDA-MB-231 breast, in the experiment with LOX IMVI melanoma, in the experiment with CCRF-CEM leukemia and in the experiment with UACC-257 melanoma was > 100 µM throughout. Also, the TGI in the experiment on SN12C renal, in the experiment with SK-MEL-2 melanoma, with HT29 colon, in the experiment with NCI-H522 lung, in the experiment on MCF7 breast and in the experiment on EKVX NSCLC was > 100 µM each time. For the same molecule, the TGI with A498 renal, with COLO 205 colon, with M14 melanoma, with ACHN renal and with RPMI-8226 leukemia was > 100 µM throughout.
Regarding `COc1ccc(/C=C2\CCC(C)c3c2nc(N)c(C#N)c3-c2ccc(OC)c(OC)c2)cc1OC` (centres undefined), the TGI with SK-MEL-5 melanoma is > 100 µM; in the experiment on MDA-MB-231 breast, > 100 µM; in the experiment with LOX IMVI melanoma, > 100 µM; with CCRF-CEM leukemia, > 100 µM; in the experiment on UACC-257 melanoma, 75.5 µM; in the experiment on DU-145 prostate, > 100 µM. The TGI in the experiment with SN12C renal was > 100 µM; in the experiment on SK-MEL-2 melanoma it was > 100 µM; in the experiment on HT29 colon it was > 100 µM; with MCF7 breast it was > 100 µM; in the experiment on EKVX NSCLC it was 8.53 µM; in the experiment on HL-60(TB) leukemia, > 100 µM. Besides, the TGI in the experiment with COLO 205 colon was 73.1 µM; in the experiment on M14 melanoma it was > 100 µM; with ACHN renal, > 100 µM; in the experiment on RPMI-8226 leukemia, > 100 µM.
`CC1(C)OC[C@H](COCOP2(=O)Oc3ccc4ccccc4c3-c3c(ccc4ccccc34)O2)O1`: the TGI in the experiment on SK-MEL-5 melanoma was 73 µM; with MDA-MB-231 breast it was 31 µM; with CCRF-CEM leukemia it was 84.8 µM; with DU-145 prostate it was 32.2 µM; with SN12C renal, 30.1 µM; in the experiment with HT29 colon, 31.3 µM. Also, the TGI with MCF7 breast is 12.2 µM; in the experiment on A498 renal, 31 µM; in the experiment on HL-60(TB) leukemia, 48.5 µM; in the experiment on M14 melanoma, 32 µM; in the experiment with ACHN renal, 37.3 µM.
